Experimental data reported in patent publication US9266892B2, “Fused pyrazoles as FGFR inhibitors” (Incyte Corporation, priority 2012, dated 2016).

Columns and labels:
Type in all cases: biochemical
FGFR1 = target: T1, FGFR1 (Homo sapiens, UniProt P11362); test: FGFR Enzymatic Assay (FRET peptide phosphorylation), FGFR1; conditions: FGFR1 0.02 nM, ATP 210 μM
T1 construct: purchased Millipore or Invitrogen
Method in brief: (§1)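 Human FGFR1 (0.02 nM) and FGFR2 (0.01 nM) were pre-incubated with compound for 5-10 min in HEPES buffer pH 7.5, then reacted at 25 °C for 1 hr with 500 nM biotinylated peptide and ATP (FGFR1 210 μM; FGFR2 100 μM). Phosphopeptide was detected by Eu-PY20/APC-streptavidin TR-FRET after EDTA quench. IC50 came from variable-slope sigmoidal fits.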

FGFR2 = target: T2, FGFR2 (Homo sapiens, UniProt P21802); test: FGFR Enzymatic Assay (FRET peptide phosphorylation), FGFR2; conditions: FGFR2 0.01 nM, ATP 100 μM
T2 construct: purchased Millipore or Invitrogen
T2 sequence (P21802 22-821): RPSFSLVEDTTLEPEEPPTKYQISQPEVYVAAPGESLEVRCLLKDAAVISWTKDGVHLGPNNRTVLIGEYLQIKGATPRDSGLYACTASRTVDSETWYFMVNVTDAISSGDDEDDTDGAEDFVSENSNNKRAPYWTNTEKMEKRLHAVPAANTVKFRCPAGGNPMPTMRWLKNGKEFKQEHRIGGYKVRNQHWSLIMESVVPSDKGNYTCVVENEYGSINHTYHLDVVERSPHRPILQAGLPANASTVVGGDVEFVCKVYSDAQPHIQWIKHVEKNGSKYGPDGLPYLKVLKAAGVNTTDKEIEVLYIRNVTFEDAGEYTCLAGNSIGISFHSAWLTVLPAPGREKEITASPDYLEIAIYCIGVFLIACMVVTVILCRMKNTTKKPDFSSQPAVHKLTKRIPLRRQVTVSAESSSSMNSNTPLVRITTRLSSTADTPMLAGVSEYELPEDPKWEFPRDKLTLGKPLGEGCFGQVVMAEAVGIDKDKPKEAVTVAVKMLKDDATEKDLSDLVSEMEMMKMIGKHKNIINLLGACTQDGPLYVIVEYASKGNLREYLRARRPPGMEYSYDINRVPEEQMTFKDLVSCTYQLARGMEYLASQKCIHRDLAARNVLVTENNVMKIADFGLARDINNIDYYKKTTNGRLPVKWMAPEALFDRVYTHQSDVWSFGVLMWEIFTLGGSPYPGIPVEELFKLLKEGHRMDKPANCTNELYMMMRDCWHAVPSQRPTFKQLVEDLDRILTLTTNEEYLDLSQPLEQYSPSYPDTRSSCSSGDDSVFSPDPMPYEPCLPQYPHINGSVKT
Method in brief: as §1

FGFR3 = target: T3, FGFR3 (Homo sapiens, UniProt P22607); test: FGFR Enzymatic Assay (FRET peptide phosphorylation), FGFR3; conditions: ATP 140 μM, 25° C. for 1 hr
T3 construct: purchased Millipore
T3 sequence (P22607 23-806): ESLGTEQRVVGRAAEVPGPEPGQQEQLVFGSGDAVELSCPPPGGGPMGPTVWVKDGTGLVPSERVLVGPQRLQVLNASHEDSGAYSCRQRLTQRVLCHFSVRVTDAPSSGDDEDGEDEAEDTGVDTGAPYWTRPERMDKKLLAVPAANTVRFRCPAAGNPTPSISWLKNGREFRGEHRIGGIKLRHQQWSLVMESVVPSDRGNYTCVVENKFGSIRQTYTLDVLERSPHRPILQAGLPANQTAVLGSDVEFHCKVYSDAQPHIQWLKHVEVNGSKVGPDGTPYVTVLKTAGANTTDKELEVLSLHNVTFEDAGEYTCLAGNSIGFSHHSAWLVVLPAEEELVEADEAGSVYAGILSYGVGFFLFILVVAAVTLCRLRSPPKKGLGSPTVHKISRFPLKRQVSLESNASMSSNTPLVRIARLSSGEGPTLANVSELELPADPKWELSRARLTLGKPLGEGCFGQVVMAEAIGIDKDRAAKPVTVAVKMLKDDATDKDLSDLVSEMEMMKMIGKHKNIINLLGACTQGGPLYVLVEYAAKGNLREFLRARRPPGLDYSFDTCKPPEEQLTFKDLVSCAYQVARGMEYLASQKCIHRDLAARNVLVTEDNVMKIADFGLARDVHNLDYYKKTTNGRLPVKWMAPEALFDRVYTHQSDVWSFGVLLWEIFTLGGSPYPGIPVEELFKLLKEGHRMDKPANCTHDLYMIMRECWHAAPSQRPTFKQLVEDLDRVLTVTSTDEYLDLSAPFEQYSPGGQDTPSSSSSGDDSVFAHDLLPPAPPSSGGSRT
Method in brief: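 FGFR3 in 50 mM HEPES pH 7.5, 10 mM […]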

Measured: IC50

T1 sequence (P11362 22-822): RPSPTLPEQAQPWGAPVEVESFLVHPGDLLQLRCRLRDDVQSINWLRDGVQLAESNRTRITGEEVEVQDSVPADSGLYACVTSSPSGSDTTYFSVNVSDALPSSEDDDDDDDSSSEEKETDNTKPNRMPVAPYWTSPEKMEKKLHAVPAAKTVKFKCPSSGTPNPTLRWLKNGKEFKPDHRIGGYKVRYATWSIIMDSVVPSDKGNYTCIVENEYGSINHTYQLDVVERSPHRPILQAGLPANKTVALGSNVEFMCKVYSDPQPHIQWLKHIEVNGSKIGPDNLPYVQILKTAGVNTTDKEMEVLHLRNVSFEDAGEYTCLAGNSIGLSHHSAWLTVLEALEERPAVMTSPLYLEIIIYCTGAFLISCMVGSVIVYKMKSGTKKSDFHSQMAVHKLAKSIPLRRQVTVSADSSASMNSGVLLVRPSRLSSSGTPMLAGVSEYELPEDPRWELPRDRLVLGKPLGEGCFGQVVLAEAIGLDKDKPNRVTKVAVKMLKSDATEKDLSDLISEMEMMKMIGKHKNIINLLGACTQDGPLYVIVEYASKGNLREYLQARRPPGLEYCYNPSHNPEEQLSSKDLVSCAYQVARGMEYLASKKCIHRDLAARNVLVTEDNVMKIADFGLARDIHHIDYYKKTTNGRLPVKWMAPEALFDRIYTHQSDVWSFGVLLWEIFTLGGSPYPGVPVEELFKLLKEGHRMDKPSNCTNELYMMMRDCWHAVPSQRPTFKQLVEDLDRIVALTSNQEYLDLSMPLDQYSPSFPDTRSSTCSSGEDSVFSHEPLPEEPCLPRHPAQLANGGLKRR

COc1cc(OC)c(F)c(-c2cc3[nH]nc(-c4ccc5c(c4)CN([C@H]4CC[C@@H](O)CC4)C5=O)c3cn2)c1F [Example 61, 5-[6-(2,6-Difluoro-3,5-dimethoxyphenyl)-1H-pyrazolo[4,3-c]pyridin-3-yl]-2-(cis-4-hydroxycyclohexyl)isoindolin-1-one]
< 0.1 µM: all assays above

COc1cc(OC)c(Cl)c(-c2ncc3c(-c4ccc5c(c4)CCN(C(C)C)C5=O)n[nH]c3n2)c1Cl [Example 11, 6-[6-(2,6-Dichloro-3,5-dimethoxyphenyl)-1H-pyrazolo[3,4-d]pyrimidin-3-yl]-2-isopropyl-3,4-dihydroisoquinolin-1(2H)-one]
< 0.1 µM: all assays above

COc1cc(OC)c(F)c(-c2ncc3c(-c4ccc5c(c4)CCC(C(=O)N(C)C)O5)n[nH]c3n2)c1F (stereo not drawn) [Example 6, 6-[6-(2,6-Difluoro-3,5-dimethoxyphenyl)-1H-pyrazolo[3,4-d]pyrimidin-3-yl]-N,N-dimethylchromane-2-carboxamide]
< 0.1 µM: all assays above

COc1cc(OC)c(Cl)c(-c2cc3[nH]nc(-c4cnn(CC(=O)N5CCC(O)C5)c4)c3cn2)c1Cl (stereo not drawn) [Example 43, 1-({4-[6-(2,6-Dichloro-3,5-dimethoxyphenyl)-1H-pyrazolo[4,3-c]pyridin-3-yl]-1H-pyrazol-1-yl}acetyl)pyrrolidin-3-ol]
< 0.1 µM: all assays above

COc1cc(OC)c(Cl)c(-c2ncc3c(-c4ccc5c(c4)CCO5)n[nH]c3n2)c1Cl [Example 86, 6-(2,6-Dichloro-3,5-dimethoxyphenyl)-3-(2,3-dihydro-1-benzofuran-5-yl)-1H-pyrazolo[3,4-d]pyrimidine]
< 0.1 µM: all assays above

COc1cc(OC)c(F)c(-c2ncc3c(-c4ccc5c(c4)CN(S(C)(=O)=O)CC5)n[nH]c3n2)c1F [Example 85, 7-[6-(2,6-Difluoro-3,5-dimethoxyphenyl)-1H-pyrazolo[3,4-d]pyrimidin-3-yl]-2-(methylsulfonyl)-1,2,3,4-tetrahydroisoquinoline]
< 0.1 µM: all assays above

COc1cc(OC)c(F)c(-c2cc3[nH]nc(-c4ccc5c(c4)CCNC5=O)c3cn2)c1F [Example 56, 6-[6-(2,6-Difluoro-3,5-dimethoxyphenyl)-1H-pyrazolo[4,3-c]pyridin-3-yl]-3,4-dihydroisoquinolin-1(2H)-one]
< 0.1 µM: all assays above

COc1cc(OC)c(Cl)c(-c2cc3[nH]nc(-c4cnn(CC(=O)N5CC(O)C5)c4)c3cn2)c1Cl [Example 39, 1-({4-[6-(2,6-Dichloro-3,5-dimethoxyphenyl)-1H-pyrazolo[4,3-c]pyridin-3-yl]-1H-pyrazol-1-yl}acetyl)azetidin-3-ol]
< 0.1 µM: all assays above

COc1cc(OC)c(Cl)c(-c2cc3[nH]nc(-c4ccc5c(c4)COC5=O)c3cn2)c1Cl [Example 32, 5-[6-(2,6-Dichloro-3,5-dimethoxyphenyl)-1H-pyrazolo[4,3-c]pyridin-3-yl]-2-benzofuran-1(3H)-one]
< 0.1 µM: all assays above

COc1cc(OC)c(F)c(-c2cc3[nH]nc(-c4ccc5c(c4)CN(CCC4CCCN4C)C5=O)c3cn2)c1F (stereo not drawn) [Example 68, 5-[6-(2,6-Difluoro-3,5-dimethoxyphenyl)-1H-pyrazolo[4,3-c]pyridin-3-yl]-2-[2-(1-methylpyrrolidin-2-yl)ethyl]isoindolin-1-one]
< 0.1 µM: all assays above

COc1cc(OC)c(F)c(-c2ncc3c(-c4ccc5ncccc5c4)n[nH]c3n2)c1F [Example 94, 6-[6-(2,6-Difluoro-3,5-dimethoxyphenyl)-1H-pyrazolo[3,4-d]pyrimidin-3-yl]quinoline]
< 0.1 µM: all assays above

COc1cc(OC)c(Cl)c(-c2cc3[nH]nc(-c4ccc(OCC(=O)N(C)C)c(C)c4)c3cn2)c1Cl [Example 29, 2-{4-[6-(2,6-Dichloro-3,5-dimethoxyphenyl)-1H-pyrazolo[4,3-c]pyridin-3-yl]-2-methylphenoxy}-N,N-dimethylacetamide]
< 0.1 µM: all assays above

COc1cc(OC)c(Cl)c(-c2ccc3c(-c4ccc5c(c4)CN(C4CC4)C5=O)n[nH]c3n2)c1F [Example 89, 5-[6-(2-Chloro-6-fluoro-3,5-dimethoxyphenyl)-1H-pyrazolo[3,4-b]pyridin-3-yl]-2-cyclopropylisoindolin-1-one]
< 0.1 µM: all assays above

COc1cc(OC)c(Cl)c(-c2cc3[nH]nc(-c4ccc(OCCN(C)C)cc4)c3cn2)c1Cl [Example 35, 2-{4-[6-(2,6-Dichloro-3,5-dimethoxyphenyl)-1H-pyrazolo[4,3-c]pyridin-3-yl]phenoxy}-N,N-dimethylethanamine]
< 0.1 µM: all assays above

COc1cc(OC)c(F)c(-c2cc3[nH]nc(-c4ccc5c(c4)CC(C(=O)N(C)C)O5)c3cn2)c1F (single isomer, unassigned) [Example 83, 5-[6-(2,6-Difluoro-3,5-dimethoxyphenyl)-1H-pyrazolo[4,3-c]pyridin-3-yl]-N,N-dimethyl-2,3-dihydro-1-benzofuran-2-carboxamide]
< 0.1 µM: all assays above

COCCN1Cc2cc(-c3n[nH]c4cc(-c5c(F)c(OC)cc(OC)c5F)ncc34)ccc2C1=O [Example 58, 5-[6-(2,6-Difluoro-3,5-dimethoxyphenyl)-1H-pyrazolo[4,3-c]pyridin-3-yl]-2-(2-methoxyethyl)isoindolin-1-one]
< 0.1 µM: all assays above

COc1cc(OC)c(Cl)c(-c2cc3[nH]nc(-c4ccc(C(O)C(=O)N(C)C)c(F)c4)c3cn2)c1Cl (stereo not drawn) [Example 34, 2-{4-[6-(2,6-Dichloro-3,5-dimethoxyphenyl)-1H-pyrazolo[4,3-c]pyridin-3-yl]-2-fluorophenyl}-2-hydroxy-N,N-dimethylacetamide]
< 0.1 µM: all assays above

COc1cc(OC)c(Cl)c(-c2ncc3c(-c4ccc5c(c4)CCNC5=O)n[nH]c3n2)c1Cl [Example 8, 6-[6-(2,6-Dichloro-3,5-dimethoxyphenyl)-1H-pyrazolo[3,4-d]pyrimidin-3-yl]-3,4-dihydroisoquinolin-1(2H)-one]
< 0.1 µM: all assays above
